{"source": "patent US11696917B2", "about": "“Agent enhancing antitumor effect using pyrazolo[3,4-d]pyrimidine compound” (TAIHO PHARMACEUTICAL CO., LTD., priority 2017, dated 2023)", "key": {"[1]": {"system": "Human stomach cancer cells 4-1st", "assay": "Combination of Compound 1 and trastuzumab (in vivo), subcutaneous tumor in nude mice", "design": "species or system nude mouse (BALB/cAJcl-nu/nu)", "conditions": "for T/C (%): Day 15; for BWC (%) Day 15 Mean: mouse, in vivo, po"}, "[2]": {"system": "Human stomach cancer cells 4-1st", "assay": "Combination of Compound 1 and trastuzumab emtansine (in vivo), subcutaneous tumor in nude mice", "conditions": "for T/C (%): Day 15; for BWC (%) Day 15 Mean: mouse, in vivo, po", "from_the_text": "Human stomach cancer cells 4-1st were obtained as fragment tumor from the Central Institute for Experimental Animals. Tumor was excised approximately one month after subcutaneous transplantation and passage in a nude mouse (BALB/cAJcl-nu/nu, CLEA Japan, Inc.), and prepared into a fragment of approximately 2 mm square. A transplantation needle was packed with one fragment and subcutaneously inserted from around the right most distal rib of a nude mouse. After entrance to the right back, the inner cylinder was pushed to eject and transplant the tumor. Electronic calipers were used in tumor size measurement, and the major axis and the minor axis of the tumor of each mouse were measured by sandwiching the tumor between the measuring surfaces of the electronic calipers (Days 0, 4, 8, 11 and 15). A tumor volume (TV) was calculated from the major axis and the minor axis. A relative tumor volume (RTV) and a rate of change in relative tumor volume (T/C) were calculated from the calculated tumor volume. TV, RTV, and T/C were calculated according to the following expressions. Tumor volume TV (mm^3)=(Major axis, mm)×(Minor axis, mm)×(Minor axis, mm)/2 Relative tumor volume RTV=(TV on the day of measurement)/(TV on the day of grouping) Rate of change in relative tumor volume T/C (%)=(Average RTV of an administration group)/(Average RTV of a control group)×100\nAn electronic balance for animals was used in body weight measurement. A rate of change in body weight on day n (BWCn) was calculated from the body weight on day n (BWn) according to the following expression. Rate of change in body weight BWCn (%)=(BWn−BW0)/BW0×100\nNude mice whose TV reached 100 to 300 mm^3 were selected, and six animals were assigned to each group by the equal number method (MiSTAT (ver. 2.0)) such that average TV was equalized among groups.\nThe presence or absence of an effect of combined use and toxicity were determined from tumor sizes and body weights on the day of grouping (Day 0) and the day of evaluation (Day 15). During the administration period, the body weights were measured every day for the calculation of the amount of a dosing solution."}, "[3]": {"system": "human stomach cancer cell line NCI-N87", "assay": "Combination of Compound 1 and capecitabine (in vivo), subcutaneous tumor in nude mice", "design": "species or system nude mouse (BALB/cAJcl-nu/nu)", "conditions": "for T/C (%): Day 15", "description": "A human stomach cancer cell line NCI-N87 was obtained from American Type Culture Collection (ATCC). The cell line was cultured at 37° C. in a 5% CO2 incubator using RPMI-1640 (containing 4.5 g/L glucose, 10 mM HEPES, and 1 mM sodium pyruvate) (Wako Pure Chemical Industries, Ltd.) medium containing 10% fetal bovine serum (FBS).\nThe NCI-N87 cells were resuspended at a concentration of 8×10^7 cells/mL in PBS.\nThe cell suspension was subcutaneously transplanted in an amount of 8×10^6 cells/0.1 mL to the right chest of a 6-week-old nude mouse (BALB/cAJcl-nu/nu, CLEA Japan, Inc.) using a 1 mL syringe for tuberculin and a 25 G injection needle.\nElectronic calipers were used in tumor size measurement."}, "[4]": {"system": "SK-BR-3 (human breast cancer)", "assay": "Combination of Compound 1 and other antitumor agents (in vitro), CellTiter-Glo, median effect method", "format": "cell-based", "description": "The supplier of each reagent, the suppliers of tumor cell lines, the media used, and the numbers of cells to be inoculated are shown in the tables below.\nThe cells were inoculated at 20 μL/well to a 384-well culture plate (Corning Inc.). The plate inoculated with the cells were cultured in an incubator set to 37° C. and 5% CO2. On the day following inoculation, each of mixed solutions of Compound 1 and each other antitumor agent at varying combinations of concentrations was added to the cells. Specifically, 8 serial dilutions (including (0 nM)) of Compound 1 and 10 serial dilutions (including (0 nM)) of the other antitumor agent were prepared using Leibovitz's L-15 medium containing 10% FBS, or ATCC formulated RPMI-1640 medium containing 10% FBS. Drug solutions in which equal amounts of the respective serial dilutions of the compounds were dispensed were mixed at a ratio of 1:1 to prepare a total of 80 mixed drug solutions including every combination. Each of these mixed drug solutions was added at 5 μL/well (N=4) to the plate, followed by further culture for 3 days under conditions of 37° C. and 5% CO2.\nThree days later, CellTiter-Glo™ 2.0 Reagent (Promega Corporation) was added thereto at 25 μL/well, and chemiluminescence was measured using a plate reader (EnSpire® Multimode Plate Reader, PerkinElmer Japan Co., Ltd.).\nThe enhancement of an effect by combined use of the drugs was evaluated according to a method known in the art (a method described in Trends Pharmacol. Sci., 4, 450-454, 1983 or Pharmacol Rev., 58 (3), 621-81, 2006).\nAn average value from 4 wells of each combination was calculated from the obtained data, and a cell survival rate normalized against a control supplemented with a medium containing a vehicle was calculated. A Fa (fraction of affect) value was calculated by subtracting the cell survival rate from 1. Median effect analysis software CalcuSyn 2.0 (CalcuSyn, Inc.) for calculation by the median effect method was used in the calculation of CI.\nAs for the combinations of the concentrations of both the drugs for calculating CI, a Fa value closer to 1 presumably means a concentration range in which one of the drugs had too strong an effect, and a Fa value closer to 0 presumably means a concentration range in which any of the drugs had too weak an effect. Since these concentration ranges were not appropriate for the discussion of a synergistic effect, combinations that satisfied 0.2 S Fa 0.8 were extracted from the combinations of the respective concentrations of Compound 1 and the other antitumor agent on the basis of the calculated Fa value.\nAn effect of combined use was determined as shown in the table below (Pharmacol Rev., 58 (3), p. 621-81, 2006)."}, "[5]": {"conditions": "Compound 1 7.5 mg/kg/day p.o. Days 1-14"}, "[6]": {"conditions": "Compound 1 15 mg/kg/day p.o. Days 1-14"}, "[7]": {"conditions": "Compound 1 30 mg/kg/day p.o. Days 1-14"}, "[8]": {"conditions": "Compound 1 0.412 nM + Cisplatin 6185 nM, ratio 1:15030, SK-BR-3"}, "[9]": {"conditions": "Compound 1 1.24 nM + Cisplatin 6185 nM, ratio 1:5010, SK-BR-3"}, "[10]": {"conditions": "Compound 1 3.70 nM + Cisplatin 687 nM, ratio 1:186, SK-BR-3"}, "[11]": {"conditions": "Compound 1 3.70 nM + Cisplatin 2062 nM, ratio 1:557, SK-BR-3"}, "[12]": {"conditions": "Compound 1 3.70 nM + Cisplatin 6185 nM, ratio 1:1670, SK-BR-3"}}, "data": [{"molecule": "C=CC(=O)N1CCC[C@@H](n2nc(C(=O)Nc3ccc(CC(=O)N(C)C)c(C)c3C)c3c(N)ncnc32)C1", "note": "[Compound 1, (R)-1-(1-acryloylpiperidin-3-yl)-4-amino-N-(4-(2-(dimethylamino)-2-oxoethyl)-2,3-dimethylphenyl)-1H-pyrazolo[3,4-d]pyrimidine-3-carboxamide]", "values": [{"measurement": "RTV Day 15 Mean + SD", "setting": "[1]; [5]", "value": "6.55 ± 0.37"}, {"measurement": "T/C (%)", "setting": "[1]; [5]", "value": 49.0, "unit": "%"}, {"measurement": "RTV Day 15 Mean + SD", "setting": "[1]; [6]", "value": "3.77 ± 0.32"}, {"measurement": "T/C (%)", "setting": "[1]; [6]", "value": 28.2, "unit": "%"}, {"measurement": "BWC (%) Day 15 Mean", "setting": "[1]; 7.5 mg/kg/day", "value": 5.06, "unit": "%"}, {"measurement": "BWC (%) Day 15 Mean", "setting": "[1]; 15 mg/kg/day", "value": 0.82, "unit": "%"}, {"measurement": "RTV Day 15 Mean ± SD", "setting": "[2]; [5]", "value": "5.92 ± 0.38"}, {"measurement": "T/C (%)", "setting": "[2]; [5]", "value": 51.6, "unit": "%"}, {"measurement": "RTV Day 15 Mean ± SD", "setting": "[2]; [6]", "value": "3.58 ± 0.41"}, {"measurement": "T/C (%)", "setting": "[2]; [6]", "value": 31.2, "unit": "%"}, {"measurement": "BWC (%) Day 15 Mean", "setting": "[2]; 7.5 mg/kg/day", "value": 7.41, "unit": "%"}, {"measurement": "BWC (%) Day 15 Mean", "setting": "[2]; 15 mg/kg/day", "value": 3.63, "unit": "%"}, {"measurement": "BWC (%) Day 15 Mean", "setting": "[3]; [6]", "value": 8.35, "unit": "%"}, {"measurement": "RTV Day 15 Mean ± SD", "setting": "[3]; [6]", "value": "1.69 ± 0.39"}, {"measurement": "T/C (%)", "setting": "[3]; [6]", "value": 40.8, "unit": "%"}, {"measurement": "BWC (%) Day 15 Mean", "setting": "[3]; [7]", "value": 6.43, "unit": "%"}, {"measurement": "RTV Day 15 Mean ± SD", "setting": "[3]; [7]", "value": "0.67 ± 0.15"}, {"measurement": "T/C (%)", "setting": "[3]; [7]", "value": 16.3, "unit": "%"}, {"measurement": "CI", "setting": "[4]; [8]", "value": 0.86}, {"measurement": "Fa", "setting": "[4]; [8]", "value": 0.50}, {"measurement": "CI", "setting": "[4]; [9]", "value": 0.84}, {"measurement": "Fa", "setting": "[4]; [9]", "value": 0.55}, {"measurement": "CI", "setting": "[4]; [10]", "value": 0.78}, {"measurement": "Fa", "setting": "[4]; [10]", "value": 0.22}, {"measurement": "CI", "setting": "[4]; [11]", "value": 0.79}, {"measurement": "Fa", "setting": "[4]; [11]", "value": 0.37}, {"measurement": "CI", "setting": "[4]; [12]", "value": 0.63}, {"measurement": "Fa", "setting": "[4]; [12]", "value": 0.65}]}]}
